Measured values from patent publication US8778970B2, “Benzyl piperidine compound” (Dainippon Sumitomo Pharma Co., Ltd, priority 2009, dated 2014).

Tests used:
[1] = target: T1, CYP2D6 (Homo sapiens (Human), UniProt P10635); assay: CYP2D6 inhibition screening test (bufuralol 1'-hydroxylation, pooled human liver microsomes); type: in vitro ADME; conditions: substrate bufuralol, 37° C. 10 min
Description: CYP2D6 Inhibition Screening Test
Bufuralol hydrochloride was purchased from Toronto Research Chemicals Inc., and pooled human liver microsomes were purchased from Xenotech, LLC.
Bufuralol hydrochloride was dissolved in DMSO at a concentration of 1.0 mM and then diluted 20-fold with distilled water.
• 1. A 10 mM solution of a test drug in DMSO was serially diluted with DMSO at four 5-fold dilutions to prepare 10, 2, 0.4 and 0.08 mM DMSO solutions. • 2. Each test drug solution of step 1 or DMSO was diluted 160-fold with the human liver microsome solution and dispensed at a concentration of 80 μL/well to a microplate. • 3. 10 μL of the substrate solution and 10 μL of the β-NADPH solution were added to each well of step 2, and the mixture was incubated at 37° C. for 10 min. • 4. The reaction was terminated by the addition of 300 μL of methanol. • 5. The reaction mixture was filtered and analyzed by LC-MS/MS. 3-4 Quantification and Calculation
The amount of 1′-hydroxybufuralol formed was determined by LC-MS/MS, and this value was used as the metabolic activity value of CYP2D6 in each well. The residual activity of each sample-supplemented group was determined by comparison with the activity in the well containing DMSO used as a test drug. IC50 values in CYP2D6 inhibition were determined from the test drug concentrations. […] The larger numeric value of IC50 in CYP2D6 inhibition means weaker CYP2D6 inhibition.

[2] = target: human serotonin 1A receptor (h-5-HT1A) (Homo sapiens (Human), UniProt P08908); assay: [3H] 8-OH-DPAT binding test for affinity for human serotonin 1A receptor; conditions: h-5-HT1A/CHO membrane preparation, [3H] 8-OH-DPAT 0.5 nM; read-out: h-5-HT1A binding inhibition constant (Ki)
Description: [^3H] 8-OH-DPAT Binding Test for Evaluating Affinity for Human Serotonin 1A Receptor
2-1 Cells Used and Preparation of Membrane Preparation
CHO cells expressing a human serotonin 1A receptor (h-5-HT1A) (h-5-HT1A/CHO) were used in the experiment. The cells were cultured in F12 containing 10% FCS, 500 μg/ml Geneticin and 100 U/ml penicillin-100 μg/ml streptomycin (all manufactured by Sigma-Aldrich Corp.) in a 5% CO2 incubator. Membrane preparation were prepared according to the method of Yabuuchi et al.^3). Specifically, the cells dissociated and collected therefrom using 50 mM Tris-HCl (pH=7.4) were homogenized using a Teflon® homogenizer and then centrifuged (48,000×g, 20 min, 4° C.). The precipitate was resuspended in an appropriate amount of 50 mM Tris-HCl (pH=7.4) and stored at −80° C. until use. The amount of the protein in the membrane preparation were determined using bovine serum albumin (manufactured by Sigma-Aldrich Corp.) as standards and Dye Reagent Concentrate (manufactured by Bio-Rad Laboratories, Inc.).
2-2 Receptor Binding Experiment
50 μl of [^3H] 8-OH-DPAT (final concentration: 0.5 nM), 1 μl of a test drug solution, and 149 μl of the h-5-HT1A/CHO membrane preparation (25 μg/well in terms of the amount of the protein) were added into a buffer containing 50 mM Tris-HCl (pH=7.4) and 4 mM CaCl2, and 200 μl in total of the reaction solution was used in the assay. The reaction solution was reacted at room temperature for 30 minutes and then immediately suction-filtered at a low pressure using a glass fiber filter paper. The glass fiber filter paper was washed twice with 250 μl of 50 mM Tris-HCl (pH=7.4) and then added to a counting vial containing 4 ml of ACS-II (manufactured by GE Healthcare (formerly Amersham Biosciences)). Receptor binding-derived radioactivity remaining on the filter paper was measured using a liquid scintillation counter. The nonspecific binding was defined as a binding amount in the presence of 10 μM 8-OH-DPAT.
8-OH-DPAT. Moreover, the Kd value was the binding dissociation constant of [^3H] […] The smaller numeric value of the h-5-HT1A binding inhibition constant Ki means higher affinity for human serotonin 1A receptors.

[3] = target: T1, CYP2D6; assay: Screening test on contribution ratio of CYP2D6 in human liver microsomal metabolism; type: in vitro ADME; conditions: 1 mg/mL human liver microsomes, 1 μM test substance, with/without 4 μM quinidine; values marked *) are reference values due to relative stability
Description: Screening Test on Contribution Ratio of CYP2D6 in Human Liver Microsomal Metabolism
0.2 mL of a 50 mM potassium phosphate buffer (pH 7.4) containing 3 mM (final concentration) NADPH (manufactured by Oriental Yeast Co., Ltd.), 1 mg/mL human liver microsomes (manufactured by Xenotech, LLC) and 1 μM test substance was warmed in a water bath at 37° C. for metabolic reaction. After 15- or 30-minute reaction, the reaction was terminated by the addition of a 3-fold volume of methanol with respect to the reaction solution and subsequent stirring. This reaction solution was centrifuged to precipitate proteins. Then, the supernatant was collected and subjected to LC-MS/MS analysis. The results were analyzed as follows:
The test substance was quantified, and time-dependent change in its residual amount was logarithmically plotted. The rate of metabolism was calculated from the slope.
The ratio of the rate of metabolism in the presence of quinidine added at 4 μM (final concentration) to the reaction solution to that in the absence of quinidine was used as the contribution ratio of enzymes other than CYP2D6. The remaining portion was used as the contribution ratio of CYP2D6. Specifically, it was calculated according to the formula: Contribution ratio (%)={1−(Rate of metabolism [in the presence of quinidine]/Rate of metabolism [in the absence of quinidine])}×100 The smaller numeric value of the contribution ratio of CYP2D6 means the small contribution of CYP2D6.

[4] = target: human serotonin transporter (h-SERT) (Homo sapiens (Human), UniProt P31645); assay: [3H] citalopram binding screening test for inhibitory effect on human serotonin reuptake; conditions: h-SERT/CHO membrane preparation, [3H] citalopram approx. 2 nM; read-out: h-SERT binding inhibition constant (Ki)
Description: Screening Test Using [^3H] Citalopram Binding for Evaluating Inhibitory Effect on Human Serotonin Reuptake
1-1 Cells Used and Preparation of Membrane Preparation
CHO cells expressing a human serotonin transporter (h-SERT) (h-SERT/CHO) were used in the experiment. The cells were cultured in F12 containing 10% FCS, 500 μg/ml Geneticin and 100 U/ml penicillin-100 μg/ml streptomycin (all manufactured by Sigma-Aldrich Corp.) in a 5% CO2 incubator. The cells dissociated and collected therefrom using SERT buffer (50 mM Tris-HCl containing 120 mM NaCl and 5 mM KCl (pH=7.4)) were homogenized using a Teflon (R) homogenizer and then centrifuged (50,000×g, 30 min, 4° C.). The precipitate was resuspended in an appropriate amount of SERT buffer and stored at −80° C. until use. The amount of the protein in the membrane preparation were determined using bovine serum albumin (manufactured by Sigma-Aldrich Corp.) as standards and Dye Reagent Concentrate (manufactured by Bio-Rad Laboratories, Inc.).
1-2 Receptor Binding Experiment
[^3H] citalopram binding was assayed according to the method of Owens et al. [Owens M. J. et al., J. Pharm. […] Specifically, 50 μl of [^3H] citalopram (final concentration: approximately 2 nM) diluted with SERT buffer, 149 μl of the h-SERT/CHO membrane preparation (40 μg/well in terms of the amount of the protein), and 1 μl of a solution of a test drug dissolved in DMSO were added to prepare 200 μl in total of a solution. This solution was reacted at room temperature for 60 minutes and then immediately suction-filtered at a low pressure using a glass fiber filter paper coated with a 0.05% aqueous polyethyleneimine solution. The glass fiber filter paper was washed twice with 250 μl of SERT buffer and then transferred to a glass vial containing 4 ml of ACS-II (manufactured by GE Healthcare (formerly Amersham Biosciences)). Radioactivity remaining on the filter paper was measured using a liquid scintillation counter. The nonspecific binding of [^3H] citalopram was defined as a binding amount in the presence of 1 μM clomipramine.
The smaller numeric value of the h-SERT binding inhibition constant Ki means a higher inhibitory effect on human serotonin reuptake.

Chain of human serotonin transporter (h-SERT) (P31645 whole entry): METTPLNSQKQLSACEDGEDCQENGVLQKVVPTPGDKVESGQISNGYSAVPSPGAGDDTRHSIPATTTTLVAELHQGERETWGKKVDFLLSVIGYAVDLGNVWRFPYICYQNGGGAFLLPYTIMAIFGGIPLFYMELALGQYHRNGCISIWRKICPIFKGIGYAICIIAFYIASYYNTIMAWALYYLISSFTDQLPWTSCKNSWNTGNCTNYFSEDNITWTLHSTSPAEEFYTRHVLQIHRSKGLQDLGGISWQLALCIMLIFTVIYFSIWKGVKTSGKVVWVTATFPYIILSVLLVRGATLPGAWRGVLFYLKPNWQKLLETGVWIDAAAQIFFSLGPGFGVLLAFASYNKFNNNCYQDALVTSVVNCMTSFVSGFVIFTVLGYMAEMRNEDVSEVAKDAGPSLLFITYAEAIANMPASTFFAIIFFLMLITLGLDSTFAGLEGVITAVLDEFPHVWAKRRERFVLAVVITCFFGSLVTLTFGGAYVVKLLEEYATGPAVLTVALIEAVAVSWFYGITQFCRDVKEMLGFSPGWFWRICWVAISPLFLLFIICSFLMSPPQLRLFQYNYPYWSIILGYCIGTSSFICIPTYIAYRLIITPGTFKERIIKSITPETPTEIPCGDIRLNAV
Chain of human serotonin 1A receptor (h-5-HT1A) (P08908 whole entry): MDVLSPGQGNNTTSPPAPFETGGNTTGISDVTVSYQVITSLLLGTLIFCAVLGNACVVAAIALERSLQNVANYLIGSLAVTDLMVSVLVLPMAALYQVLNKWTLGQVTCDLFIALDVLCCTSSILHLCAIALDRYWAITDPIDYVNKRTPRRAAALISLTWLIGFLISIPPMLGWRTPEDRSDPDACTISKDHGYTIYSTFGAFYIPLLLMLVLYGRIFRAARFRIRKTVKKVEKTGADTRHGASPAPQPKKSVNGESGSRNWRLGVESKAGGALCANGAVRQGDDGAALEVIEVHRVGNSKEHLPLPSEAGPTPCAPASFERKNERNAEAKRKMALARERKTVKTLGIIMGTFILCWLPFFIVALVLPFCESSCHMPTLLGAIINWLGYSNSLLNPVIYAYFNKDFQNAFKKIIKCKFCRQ
T1 sequence (P10635 whole entry): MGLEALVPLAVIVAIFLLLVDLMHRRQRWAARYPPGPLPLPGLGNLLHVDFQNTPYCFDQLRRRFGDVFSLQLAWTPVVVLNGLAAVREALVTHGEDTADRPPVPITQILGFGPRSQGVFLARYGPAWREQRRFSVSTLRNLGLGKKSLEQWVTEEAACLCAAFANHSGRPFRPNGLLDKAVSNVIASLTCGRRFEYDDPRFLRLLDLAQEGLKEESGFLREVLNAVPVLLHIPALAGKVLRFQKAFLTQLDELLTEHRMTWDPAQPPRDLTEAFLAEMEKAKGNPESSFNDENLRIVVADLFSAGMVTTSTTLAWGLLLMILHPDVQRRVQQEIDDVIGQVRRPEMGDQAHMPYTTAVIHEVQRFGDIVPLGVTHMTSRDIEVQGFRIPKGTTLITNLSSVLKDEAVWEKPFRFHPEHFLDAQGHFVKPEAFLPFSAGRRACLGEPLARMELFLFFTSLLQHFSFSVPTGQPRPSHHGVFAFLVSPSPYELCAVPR

Compound | IC50 [1] [nM] | Ki [2] [nM] | CYP2D6 contribution ratio [3] | Ki [4] [nM]
Cl.O=c1ccoc2ccc(CCN3CCC(Cc4ccc(Br)c(OCCO)c4)CC3)cc12 [Compound 5-7, 6-(2-{4-[4-Bromo-3-(2-hydroxyethoxy)benzyl]piperidin-1-yl}ethyl)-4H-chromen-4-one hydrochloride] | 34900 | 2.1 | 9.2*) % | 3.5
O=C1c2cc(CCN3CCC(Cc4ccc(Br)c(OCCO)c4)CC3)ccc2OCC1O (stereo not drawn) [Compound 5-4, 6-(2-{4-[4-Bromo-3-(2-hydroxyethoxy)benzyl]piperidin-1-yl}ethyl)-3-hydroxy-2,3-dihydro-4H-chromen-4-one] | > 50000 | 5.5 | 0*) % | 18
Oc1cc(CC2CCN(CCc3ccc4c(c3)C(O)CCO4)CC2)ccc1Br (stereo not drawn) [Compound 5-15, 6-{2-[4-(4-Bromo-3-hydroxybenzyl)piperidin-1-yl]ethyl}-3,4-dihydro-2H-chromen-4-ol] | 40300 | 8.5 | 0*) % | 41
COCCOc1cc(CC2CCN(CCc3ccc4occc(=O)c4c3)CC2)ccc1Br.Cl [Compound 5-6, 6-(2-{4-[4-Bromo-3-(2-methoxyethoxy)benzyl]piperidin-1-yl}ethyl)-4H -chromen-4-one hydrochloride] | 28300 | 2 | 31% | 0.27
O=C1CCOc2ccc(CCN3CCC(Cc4ccc(Br)c(O)c4)CC3)cc21 [Compound 5-8, 6-{2-[4-(4-Bromo-3-hydroxybenzyl)piperidin-1-yl]ethyl}-2,3-dihydro-4H-chromen-4-one] | 9900 | 1.3 | 98% | 6.5
O=c1ccoc2ccc(CCN3CCC(Cc4ccc(Br)c(O)c4)CC3)cc12 [Compound 5-9, 6-{2-[4-(4-Bromo-3-hydroxybenzyl)piperidin-1-yl]ethyl}-4H-chromen-4-one] | 16800 | 0.27 | 46% | 1.7
